Key:
Assay type in all cases: in vivo
[1] = tested on: Oat, Wild (wild oat, Avena fatua); assay: Test A1 postemergence, Oat, Wild; settings: Postemergence
How it was run: (§1)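 Test compounds were formulated in a non-phytotoxic solvent mixture containing a surfactant. For preemergence, seeds sown in a loam soil–sand blend received a directed soil spray. For postemergence, potted plants in the same soil, 2 to 10 cm tall at the one- to two-leaf stage, were sprayed.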

[2] = tested on: Foxtail, Giant (giant foxtail, Setaria faberi); assay: Test A1 preemergence, Foxtail, Giant
How it was run: (§2)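 Plants grown in pots of loam/sand mix; preemergence = soil-directed spray on seeded pots, postemergence = spray at 1–2 leaves, height 2–10 cm; test chemicals formulated in non-phytotoxic solvent with surfactant.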

[3] = tested on: kochia (Bassia scoparia); assay: Test A1 postemergence, kochia; settings: Postemergence
How it was run: (§3)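 Herbicidal response was scored on plants treated either preemergence, by directed spray onto soil of a loam–sand blend after sowing, or postemergence on potted plants at the one- to two-leaf stage, 2–10 cm high. Test chemicals were carried in a non-phytotoxic solvent mix with surfactant.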

[4] = tested on: Oat, Wild (wild oat, Avena fatua); assay: Test A1 preemergence, Oat, Wild
How it was run: as §2

[5] = tested on: ragweed (common ragweed, Ambrosia artemisiifolia); assay: Test A1 preemergence, ragweed
How it was run: as §2

[6] = tested on: barnyardgrass (Echinochloa crus-galli); assay: Test B1 flooded paddy test, barnyardgrass; settings: 250 g ai/ha, Flood, applied to paddy water, 2-leaf stage, visually evaluated after 10 to 14 days
Text: A dash (-) response means no test result.

[7] = tested on: soybean (Glycine max); assay: Test A1 postemergence, soybean; settings: Postemergence
How it was run: as §3

[8] = tested on: ragweed (common ragweed, Ambrosia artemisiifolia); assay: Test A1 postemergence, ragweed; settings: Postemergence
How it was run: as §1

[9] = tested on: kochia (Bassia scoparia); assay: Test A1 preemergence, kochia
How it was run: as §2

[10] = tested on: corn (Zea mays); assay: Test A1 preemergence, corn
How it was run: as §1

[11] = 31 g ai/ha, 0 to 100 scale (0 no effect, 100 complete control), 10 days
[12] = 31 g ai/ha, 0 to 100 scale (0 no effect, 100 complete control)
[13] = 125 g ai/ha, 0 to 100 scale, 0 no effect, 100 complete control

Row | SMILES | Plant response rating, Oat, Wild [1, 11] | Plant response rating, Oat, Wild ([1]; 125 g ai/ha, 0 to 100 scale) | Plant response rating, Foxtail, Giant [2, 12] | Plant response rating, Foxtail, Giant [2, 13] | Plant response rating, Kochia [3, 11] | Plant response rating, Kochia ([3]; 125 g ai/ha, 0 to 100 scale) | Plant response rating, Oat, Wild [4, 12] | Plant response rating, Oat, Wild [4, 13] | Plant response rating, Ragweed [5, 12] | Plant response rating, Ragweed [5, 13] | Plant response rating, Barnyardgrass (0 to 100 scale, 0 is no effect, 100 is complete control) [6] | Plant response rating, Soybean [7, 11] | Plant response rating, Soybean ([7]; 125 g ai/ha, 0 to 100 scale) | Plant response rating, Ragweed [8, 11] | Plant response rating, Ragweed ([8]; 125 g ai/ha, 0 to 100 scale) | Plant response rating, Kochia [9, 12] | Plant response rating, Kochia [9, 13] | Plant response rating, Corn [10, 12] | Plant response rating, Corn [10, 13]
1 | Cc1c(C2=NO[C@@H]3CCC[C@H]23)cc(N(COC(=O)C(C)(C)C)S(=O)(=O)C(F)(F)F)c(C)c1C [Compound 336, [[(Trifluoromethyl)sulfonyl][2,3,4-trimethyl-5-[(3aR,6aR)-3a,5,6,6a-tetrahydro-4H-cyclopent[d]isoxazol-3-yl]phenyl]amino]methyl 2,2-dimethylpropanoate] | 0 | 0 | 20 | 80 | 70 | 80 | 0 | 20 | 0 | 50 | 95 | 20 | 50 | 50 | 80 | 0 | 0 | 0 | 0
2 | Cc1cc(C2CC2)c(C2=NOC3CCCC23)cc1NS(=O)(=O)C(F)(F)F (stereo not drawn) [Compound 307] | 0 | 20 | 50 | 100 | 0 | 30 | 0 | 40 | 0 | 60 | 60 | 10 | 50 | 0 | 80 | 0 | 10 | 0 | 0
3 | CCC1ON=C(c2cc(N(COC(=O)C(C)(C)C)S(=O)(=O)C(F)(F)F)c(C)cc2C)C1CC (stereo not drawn) [Compound 344] | 20 | 30 | 30 | 100 | 20 | 60 | 0 | 10 | 0 | 0 | 95 | 40 | 50 | 30 | 60 | 0 | 30 | 10 | 10
4 | Cc1cc(C)c(N(C(=O)OC(C)C)S(=O)(=O)C(F)(F)F)cc1C1=NOC2CCCC12 (stereo not drawn) [Compound 295] | 0 | 0 | 0 | 40 | 0 | 30 | 0 | 0 | 0 | 0 | 95 | 20 | 50 | 50 | 70 | 0 | 30 | 0 | 0
5 | Cc1cc(C)c(N(COC(=O)C(C)(C)C)S(=O)(=O)C(F)(F)F)cc1C1=NOC2(C)CCCC12 (stereo not drawn) [Compound 341] | 0 | 20 | 0 | 50 | 20 | 30 | 0 | 0 | 0 | 0 | 95 | 40 | 50 | 60 | 80 | 0 | 40 | 0 | 0
6 | Cc1cc(C)c(N(COC(=O)C(C)(C)C)S(=O)(=O)C(F)(F)F)cc1C(=O)N1CCC(F)(F)CC1 [Compound 350] | 0 | 0 | 0 | 80 | 0 | 60 | 0 | 10 | 20 | 80 | 90 | 10 | 40 | 80 | 90 | 20 | 70 | 0 | 0
7 | Cc1cc(C(F)(F)F)c(C2=NOC3CCCC23)cc1NS(=O)(=O)C(F)(F)F (stereo not drawn) [Compound 306] | 0 | 20 | 0 | 20 | 0 | 20 | 0 | 10 | 0 | 10 | 0 | 20 | 40 | 0 | 70 | 0 | 30 | 0 | 0
8 | CCC1ON=C(c2cc(NS(=O)(=O)C(F)(F)F)c(C)cc2C)C1CC (stereo not drawn) [Compound 346] | 20 | 40 | 60 | 100 | 30 | 60 | 30 | 80 | 0 | 10 | 90 | 30 | 60 | 50 | 70 | 30 | 30 | 10 | 20
9 | Cc1cc(C)c(N(COC(=O)OC(C)C)S(=O)(=O)C(F)(F)F)cc1C1=NOC2CCCC12 (stereo not drawn) [Compound 314] | 0 | 10 | 30 | 90 | 30 | 70 | 0 | 0 | 0 | 60 | 98 | 40 | 50 | 0 | 70 | 0 | 70 | 10 | 40
10 | CCOC1CC(c2cc(NS(=O)(=O)C(F)(F)F)c(C)cc2C)=NO1 (stereo not drawn) [Compound 318] | 0 | 10 | 30 | 90 | 30 | 90 | 0 | 10 | 50 | 70 | 95 | 30 | 40 | 60 | 80 | 60 | 70 | 0 | 70
11 | Cc1cc(C2CC2)c(C2=NOC3CCCC23)cc1N(COC(=O)C(C)(C)C)S(=O)(=O)C(F)(F)F (stereo not drawn) [Compound 355] | 0 | 10 | 0 | 60 | 0 | 50 | 0 | 0 | 0 | 40 | 60 | 10 | 40 | 60 | 60 | 0 | 0 | 0 | 0
12 | CCOC(=O)N(c1cc(C(=O)N2CCOCC2)c(C)c(C)c1C)S(=O)(=O)C(F)(F)F [Compound 325] | 0 | 10 | 30 | 100 | 20 | 50 | 0 | 70 | 50 | 90 | 95 | 50 | 80 | 0 | 70 | 20 | 70 | 0 | 40
